Data published in patent US20240051946A1, “TARGETED PROTEIN DEGRADATION OF PARP14 FOR USE IN THERAPY” (Ribon Therapeutics, Inc., priority 2022, published 2024).

molecular target: T1, catalytic domain of human PARP14 (residues 1611 to 1801) with NanoLuc tag (Homo sapiens, UniProt Q460N5); test: NanoLuc assay for the degradation of PARP14; type: cell-based; details: Assay A; NanoLuc-PARP14 overexpressed in HEK-293T cells; 2 hours at 37 degrees; luminescence
T1 construct: expressed in transfected cells; host or cells: HEK-293T cells (ATCC), plasmid pRTX240 in pcDNA3.1(-)
T1 sequence (Q460N5 1611-1801): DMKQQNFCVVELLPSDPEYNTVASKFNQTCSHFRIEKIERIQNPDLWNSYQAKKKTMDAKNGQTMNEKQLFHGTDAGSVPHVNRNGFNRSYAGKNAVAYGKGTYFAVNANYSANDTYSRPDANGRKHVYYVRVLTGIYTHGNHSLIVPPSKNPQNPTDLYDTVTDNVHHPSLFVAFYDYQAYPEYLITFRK
Protocol: The catalytic domain of human PARP14 (residues 1611 to 1801, GenBank Accession No. NM_017554) was inserted into the pcDNA3.1(−) vector. The insert also contained a NanoLuc tag on the N terminus of the PARP14 protein.
Degradation of PARP14 protein was assessed using measurement of the NanoLuc tag as proxy for the PARP14 protein. PARP14 with NanoLuc tag was overexpressed in […] cells (ATCC) using the plasmid described in Table 1. Plasmid DNA was diluted in empty vector DNA then added to 1.163 mL of phenol red free OptiMEM (Thermo Fisher). Plasmid DNA concentrations used in each assay described in Table 1. The plasmid DNA was mixed with 78.5 μL of Fugene HD (Promega) and allowed to incubate 5 minutes.
Next, 1.125 mL were added to 10 million 293T cells in DMEM (Thermo Fisher) supplemented with 10% FBS (VWR) and 1× Glutamax (Gibco). The transfection was incubated for 24 hrs at 37 degrees in an incubator supplemented with 5% CO2. The cells were then trypsinized and brought up in phenol red free OptiMEM media. Transfected HEK-293T cells were diluted to […] and then added to assay plate (Corning 3574) using a Multidrop (Thermo Fisher) to add 40 μL per well of the 384 well plate, resulting in 5,000 cells per well. 40 nL of a dose response curve diluted in DMSO of each test compound was added to the cell plate using a Mosquito (TTP Labtech) and the plate was incubated at 37 degrees for 2 hours. Assay plate was brought to room temperature then 20 μL per well of NanoGlo (Promega) was added to the plate. Luminescence was measured on an Envision (Perkin Elmer).
(§1) The average DMSO was calculated from 32 wells containing 0.1% DMSO only in columns 12 and 24 of the assay plate. The % of DMSO values were calculated as described below: […]
(§2) The % of DMSO values were plotted as a function of compound concentration and the following 4-parameter fit was applied to derive the DC50 values:
(§3) where top, bottom, and Hill Coefficient are allowed to float. Y is the % of DMSO and X is the compound concentration.
DC50 data for the Example compounds is provided below in Table 2 (“+” is <0.1 μM; “++” is ≥0.1 μM and <1 μM; and “+++” is ≥1 μM).

DC50 | Structure (SMILES)
< 100 nM | O=C(CN1CCC(SCc2nc3cc(OCC4CCOCC4)cc(F)c3c(=O)[nH]2)CC1)NCC(=O)N1CCC(c2cccc(NC3CCC(=O)NC3=O)c2)CC1 (stereo not drawn) [Example 11, N-(2-(4-(3-((2,6-dioxopiperidin-3-yl)amino)phenyl)piperidin-1-yl)-2-oxoethyl)-2-(4-(((5-fluoro-4-oxo-7-((tetrahydro-2H-pyran-4-yl)methoxy)-3,4-dihydroquinazolin-2-yl)methyl)thio)piperidin-1-yl)acetamide]
< 100 nM | O=C(CN1CCC(SCc2nc3cc(OCC4CCOCC4)cc(F)c3c(=O)[nH]2)CC1)NCCCCCCNC(=O)c1cccc(N2CCC(=O)NC2=O)c1 [Example 3, 3-(2,4-dioxotetrahydropyrimidin-1(2H)-yl)-N-(6-(2-(4-(((5-fluoro-4-oxo-7-((tetrahydro-2H-pyran-4-yl)methoxy)-3,4-dihydroquinazolin-2-yl)methyl)thio)piperidin-1-yl)acetamido)hexyl)benzamide]
< 100 nM | O=C(CN1CCC(SCc2nc3cc(OCC4CCOCC4)cc(F)c3c(=O)[nH]2)CC1)NCCCCCCN1CCC(c2ccc(NC3CCC(=O)NC3=O)cc2)CC1 (stereo not drawn) [Example 5, N-(6-(4-(4-((2,6-dioxopiperidin-3-yl)amino)phenyl)piperidin-1-yl)hexyl)-2-(4-(((5-fluoro-4-oxo-7-((tetrahydro-2H-pyran-4-yl)methoxy)-3,4-dihydroquinazolin-2-yl)methyl)thio)piperidin-1-yl)acetamide]
< 100 nM | O=C(CN1CCC(SCc2nc3cc(OCC4CCOCC4)cc(F)c3c(=O)[nH]2)CC1)NCCCCCCN1CCC(c2cccc(NC3CCC(=O)NC3=O)c2)CC1 (stereo not drawn) [Example 16, N-(6-(4-(3-((2,6-dioxopiperidin-3-yl)amino)phenyl)piperidin-1-yl)hexyl)-2-(4-(((5-fluoro-4-oxo-7-((tetrahydro-2H-pyran-4-yl)methoxy)-3,4-dihydroquinazolin-2-yl)methyl)thio)piperidin-1-yl)acetamide]
< 100 nM | CC(=O)N1CCC(COc2cc(F)c3c(=O)[nH]c(CSC4CCN(CC#Cc5ccc6c(c5)C(=O)N(C5CCC(=O)NC5=O)C6=O)CC4)nc3c2)CC1 (stereo not drawn) [Example 34, 5-(3-(4-(((7-((1-acetylpiperidin-4-yl)methoxy)-5-fluoro-4-oxo-3,4-dihydroquinazolin-2-yl)methyl)thio)piperidin-1-yl)prop-1-yn-1-yl)-2-(2,6-dioxopiperidin-3-yl)isoindoline-1,3-dione]
< 100 nM | O=C1CCC(N2C(=O)c3ccc(N4CCN(CC5CCN(C(=O)CN6CCC(SCc7nc8cc(NC9CCCC9)cc(F)c8c(=O)[nH]7)CC6)CC5)CC4)cc3C2=O)C(=O)N1 (stereo not drawn) [Example 29, 5-(4-((1-(2-(4-(((7-(cyclopentylamino)-5-fluoro-4-oxo-3,4-dihydroquinazolin-2-yl)methyl)thio)piperidin-1-yl)acetyl)piperidin-4-yl)methyl)piperazin-1-yl)-2-(2,6-dioxopiperidin-3-yl)isoindoline-1,3-dione]
< 100 nM | CC(=O)N1CCC(COc2cc(F)c3c(=O)[nH]c(CCC4CCN(CC(=O)N5CCC(CN6CCN(c7cccc8c7C(=O)N(C7CCC(=O)NC7=O)C8=O)CC6)CC5)CC4)nc3c2)CC1 (stereo not drawn) [Example 27, 4-(4-((1-(2-(4-(2-(7-((1-acetylpiperidin-4-yl)methoxy)-5-fluoro-4-oxo-3,4-dihydroquinazolin-2-yl)ethyl)piperidin-1-yl)acetyl)piperidin-4-yl)methyl)piperazin-1-yl)-2-(2,6-dioxopiperidin-3-yl)isoindoline-1,3-dione]

molecular target: T2, PARP14 (Homo sapiens, UniProt Q460N5); test: HiBiT assay for the degradation of PARP14 (HiBiT tagged PARP14 in LgBiT expressing Jurkat cells); type: cell-based; details: Assay B, 37° C. for 2 or 24 hours, luminescence
T2 construct: engineered to contain a HiBiT tag on both alleles of the PARP14 gene; endogenous in cells; host or cells: Jurkat cells stably expressing LgBiT (Promega), with CRISPR/Cas9 knock-in of HiBiT at the PARP14 locus
T2 sequence (Q460N5 whole entry): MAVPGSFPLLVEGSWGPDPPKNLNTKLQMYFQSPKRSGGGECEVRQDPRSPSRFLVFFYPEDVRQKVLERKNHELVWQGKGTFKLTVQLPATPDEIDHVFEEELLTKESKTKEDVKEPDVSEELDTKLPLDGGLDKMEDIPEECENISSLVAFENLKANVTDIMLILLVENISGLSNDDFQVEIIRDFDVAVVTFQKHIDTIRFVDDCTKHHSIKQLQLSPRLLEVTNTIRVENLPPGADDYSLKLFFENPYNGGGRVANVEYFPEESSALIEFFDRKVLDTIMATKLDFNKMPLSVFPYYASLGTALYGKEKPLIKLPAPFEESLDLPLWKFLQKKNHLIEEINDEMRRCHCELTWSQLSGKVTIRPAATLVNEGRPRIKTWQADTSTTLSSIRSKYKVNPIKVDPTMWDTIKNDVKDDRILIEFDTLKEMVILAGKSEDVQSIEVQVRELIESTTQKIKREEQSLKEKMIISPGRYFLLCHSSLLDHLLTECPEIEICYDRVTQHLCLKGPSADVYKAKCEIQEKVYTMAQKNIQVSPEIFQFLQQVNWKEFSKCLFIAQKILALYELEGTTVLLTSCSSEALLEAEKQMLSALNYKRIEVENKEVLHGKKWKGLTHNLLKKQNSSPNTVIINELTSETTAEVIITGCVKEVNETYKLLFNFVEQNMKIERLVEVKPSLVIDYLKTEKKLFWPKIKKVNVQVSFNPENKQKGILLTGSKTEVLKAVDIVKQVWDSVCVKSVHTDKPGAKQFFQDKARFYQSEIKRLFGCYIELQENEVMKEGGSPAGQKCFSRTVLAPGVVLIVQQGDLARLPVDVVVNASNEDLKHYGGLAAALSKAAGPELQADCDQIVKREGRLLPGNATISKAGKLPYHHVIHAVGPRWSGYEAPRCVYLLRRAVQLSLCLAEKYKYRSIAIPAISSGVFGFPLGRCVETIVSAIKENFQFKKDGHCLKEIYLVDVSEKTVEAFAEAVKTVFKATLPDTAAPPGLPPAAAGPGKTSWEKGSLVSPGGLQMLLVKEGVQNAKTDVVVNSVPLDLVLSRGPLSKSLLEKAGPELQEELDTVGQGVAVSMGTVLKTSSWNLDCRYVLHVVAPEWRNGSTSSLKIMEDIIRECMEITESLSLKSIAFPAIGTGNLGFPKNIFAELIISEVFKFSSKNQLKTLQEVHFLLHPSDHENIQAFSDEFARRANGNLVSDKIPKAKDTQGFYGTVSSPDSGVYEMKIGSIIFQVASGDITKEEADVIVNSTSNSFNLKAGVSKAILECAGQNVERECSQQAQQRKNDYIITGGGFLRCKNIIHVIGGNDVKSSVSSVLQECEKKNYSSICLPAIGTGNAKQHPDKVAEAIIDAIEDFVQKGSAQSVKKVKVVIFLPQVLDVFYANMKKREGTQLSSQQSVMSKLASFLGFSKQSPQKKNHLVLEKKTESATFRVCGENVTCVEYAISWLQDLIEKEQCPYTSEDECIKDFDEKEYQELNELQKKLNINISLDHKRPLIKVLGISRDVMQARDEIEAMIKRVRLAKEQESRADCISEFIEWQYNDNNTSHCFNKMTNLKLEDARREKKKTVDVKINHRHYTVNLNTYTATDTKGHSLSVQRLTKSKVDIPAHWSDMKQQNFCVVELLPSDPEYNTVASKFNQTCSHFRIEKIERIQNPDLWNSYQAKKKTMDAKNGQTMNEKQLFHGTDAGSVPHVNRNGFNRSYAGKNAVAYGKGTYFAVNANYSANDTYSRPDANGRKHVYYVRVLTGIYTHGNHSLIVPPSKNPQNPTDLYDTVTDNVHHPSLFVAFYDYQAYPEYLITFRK
Protocol: Jurkat cells stably transfected with LgBiT (Promega) were engineered to contain a HiBiT tag on both alleles of the PARP14 gene (Genbank Accession Number: NM_017554) via CRISPR/Cas9 editing. The HiBiT tag is an 11 amino acid tag created by Promega that associates with LgBiT protein to form the NanoLuc® tag on the C-terminus of PARP14. Clones were isolated and confirmed for the HiBiT tag via Sanger sequencing.
Degradation of PARP14 protein was assessed by measuring the luminescence of the HiBiT tag associating with the LgBiT protein as a proxy for the PARP14 protein. Jurkat cells were diluted to 250,000 cells per mL and then added to assay plate (Corning 3574) using a Multidrop (Thermo Fisher) to add 20 μL per well of the 384 well plate, resulting in 5,000 cells per well. 20 nL of a dose response curve diluted in DMSO of each test compound was added to the cell plate using a Mosquito (TTP Labtech) and the plate was incubated at 37° C. for 2 or 24 hours. Assay plate was brought to room temperature then 5 μL per well of Live Cell Substrate (Promega) was added to the plate. Luminescence was measured on an Envision (Perkin Elmer).
as §1, §2, §3
DC50 data for the Example compounds is provided below in Table 2 (“+” is <0.03 μM; “++” is ≥0.03 μM).

Structure (SMILES) | DC50
O=C1CCC(Nc2ccc(N3CCN(CCN4CCC(SCc5nc6cc(OCC7CC7)cc(F)c6c(=O)[nH]5)CC4)CC3)cc2)C(=O)N1 (stereo not drawn) [Example 42, 3-((4-(4-(2-(4-(((7-(cyclopropylmethoxy)-5-fluoro-4-oxo-3,4-dihydroquinazolin-2-yl)methyl)thio)piperidin-1-yl)ethyl)piperazin-1-yl)phenyl)amino)piperidine-2,6-dione] | < 30 nM

same assay, conditions: Assay B, 37° C. for 2 or 24 hours, luminescence, read-out: DC50

Structure (SMILES) | DC50
O=C1CCC(Nc2ccc(N3CCN(CCN4CCC(OCc5nc6cc(OCC7CCOCC7)cc(F)c6c(=O)[nH]5)CC4)CC3)c(F)c2)C(=O)N1 (stereo not drawn) [Example 44, 3-((3-fluoro-4-(4-(2-(4-((5-fluoro-4-oxo-7-((tetrahydro-2H-pyran-4-yl)methoxy)-3,4-dihydroquinazolin-2-yl)methoxy)piperidin-1-yl)ethyl)piperazin-1-yl)phenyl)amino)piperidine-2,6-dione] | < 30 nM
O=C1CCC(Nc2ccc(N3CCN(CCN4CCC(SCc5nc6cc(OCC7CC7)cc(F)c6c(=O)[nH]5)CC4)CC3)c(F)c2)C(=O)N1 (stereo not drawn) [Example 47, 3-((4-(4-(2-(4-(((7-(cyclopropylmethoxy)-5-fluoro-4-oxo-3,4-dihydroquinazolin-2-yl)methyl)thio)piperidin-1-yl)ethyl)piperazin-1-yl)-3-fluorophenyl)amino)piperidine-2,6-dione] | < 30 nM

Results, then the molecule that gave them:

DC50 | Structure (SMILES)
< 30 nM | Cn1nc(N2CCC(=O)NC2=O)c2ccc(N3CCC(N4CCC(SCc5nc6cc(OCC7CC7)cc(F)c6c(=O)[nH]5)CC4)CC3)cc21 [Example 61, 1-(6-(4-(((7-(cyclopropylmethoxy)-5-fluoro-4-oxo-3,4-dihydroquinazolin-2-yl)methyl)thio)-[1,4′-bipiperidin]-1′-yl)-1-methyl-1H-indazol-3-yl)dihydropyrimidine-2,4(1H,3H)-dione]
< 30 nM | O=C1CCC(Nc2cc(F)c(N3CCC(N4CCC(SCc5nc6cc(OCC7CC7)cc(F)c6c(=O)[nH]5)CC4)CC3)cc2F)C(=O)N1 (stereo not drawn) [Example 58, 3-((4-(4-(((7-(cyclopropylmethoxy)-5-fluoro-4-oxo-3,4-dihydroquinazolin-2-yl)methyl)thio)-[1,4′-bipiperidin]-1′-yl)-2,5-difluorophenyl)amino)piperidine-2,6-dione]
< 30 nM | O=C1CCC(Nc2ccc(N3CCC(N4CCC(OCc5nc6cc(OCC7CC7)cc(F)c6c(=O)[nH]5)CC4)CC3)c(F)c2)C(=O)N1 (stereo not drawn) [Example 53, 3-((4-(4-((7-(cyclopropylmethoxy)-5-fluoro-4-oxo-3,4-dihydroquinazolin-2-yl)methoxy)-[1,4′-bipiperidin]-1′-yl)-3-fluorophenyl)amino)piperidine-2,6-dione]
< 30 nM | O=C1CCC(N2Cc3cc(N4CCC(CN5CCC(SCc6nc7cc(OCC8CC8)cc(F)c7c(=O)[nH]6)CC5)CC4)ccc3C2=O)C(=O)N1 (stereo not drawn) [Example 50, 3-(5-(4-((4-(((7-(cyclopropylmethoxy)-5-fluoro-4-oxo-3,4-dihydroquinazolin-2-yl)methyl)thio)piperidin-1-yl)methyl)piperidin-1-yl)-1-oxoisoindolin-2-yl)piperidine-2,6-dione]
< 30 nM | O=C1CCC(Nc2ccc(N3CCC(N4CCC(SCc5nc6cc(OCC7CC7)cc(F)c6c(=O)[nH]5)CC4)C3)c(F)c2)C(=O)N1 (stereo not drawn) [Example 59, 3-((4-(3-(4-(((7-(cyclopropylmethoxy)-5-fluoro-4-oxo-3,4-dihydroquinazolin-2-yl)methyl)thio)piperidin-1-yl)pyrrolidin-1-yl)-3-fluorophenyl)amino)piperidine-2,6-dione]
